The values below come from US20210283261A1, “Compositions and Methods for Treating ALK-Mediated Cancer” (ICAHN SCHOOL OF MEDICINE AT MOUNT SINAI, priority 2017, published 2021).

SMILES strings stand for the structures.

For the test, the target named is T1, ALK fusion protein (Homo sapiens, UniProt Q9UM73).
T1 construct: endogenous in cells; host or cells: NCI-H3122; the other entry of the earlier key: EML4 (Q9HC35, Echinoderm microtubule-associated protein-like 4)
The test is described as follows: Western blot of ALK fusion protein levels in NCI-H3122 cells. The test is classed as cell-based. Conditions: NCI-H3122, NCI-H3122 cells, 500 nM, Western blot; read-out: ALK fusion protein degradation, NCI-H3122 (500 nM). The method, then: SU-DHL-1, NCI-H3122 and NCI-H2228 cells were cultured in RPMI-1640 medium supplemented with 10% fetal bovine serum, 50 μg/mL penicillin and streptomycin. Cells were cultured in a 37° C. incubator with 5% CO2.
Cells were washed with cold PBS once and lysed in 1× Laemmli loading buffer directly. Lysates were heated at 99° C. for […], and resolved on 4-15% precast SDS-PAGE (BIO-RAD) and transferred onto PVDF membrane. Membrane was blocked in 5% milk in Tris-buffered saline and Tween 20 (TBST) for 1 h at room temperature, followed by incubation with a primary antibody overnight at 4° C., and a horseradish peroxidase (HRP)-conjugated secondary antibody for 1 h at room temperature. The membrane was imaged by a ChemiDoc MP imaging system (BIO-RAD). Antibodies against GAPDH (abeam), Phospho-ALK (Tyr1507), ALK (Cell Signaling Technology), Tubulin (Santa Cruz) were purchased commercially. […]
(In general: In western blotting, separated proteins are transferred to a membrane and probed.)

T1 sequence (Q9UM73 with tags, fused parts or gaps): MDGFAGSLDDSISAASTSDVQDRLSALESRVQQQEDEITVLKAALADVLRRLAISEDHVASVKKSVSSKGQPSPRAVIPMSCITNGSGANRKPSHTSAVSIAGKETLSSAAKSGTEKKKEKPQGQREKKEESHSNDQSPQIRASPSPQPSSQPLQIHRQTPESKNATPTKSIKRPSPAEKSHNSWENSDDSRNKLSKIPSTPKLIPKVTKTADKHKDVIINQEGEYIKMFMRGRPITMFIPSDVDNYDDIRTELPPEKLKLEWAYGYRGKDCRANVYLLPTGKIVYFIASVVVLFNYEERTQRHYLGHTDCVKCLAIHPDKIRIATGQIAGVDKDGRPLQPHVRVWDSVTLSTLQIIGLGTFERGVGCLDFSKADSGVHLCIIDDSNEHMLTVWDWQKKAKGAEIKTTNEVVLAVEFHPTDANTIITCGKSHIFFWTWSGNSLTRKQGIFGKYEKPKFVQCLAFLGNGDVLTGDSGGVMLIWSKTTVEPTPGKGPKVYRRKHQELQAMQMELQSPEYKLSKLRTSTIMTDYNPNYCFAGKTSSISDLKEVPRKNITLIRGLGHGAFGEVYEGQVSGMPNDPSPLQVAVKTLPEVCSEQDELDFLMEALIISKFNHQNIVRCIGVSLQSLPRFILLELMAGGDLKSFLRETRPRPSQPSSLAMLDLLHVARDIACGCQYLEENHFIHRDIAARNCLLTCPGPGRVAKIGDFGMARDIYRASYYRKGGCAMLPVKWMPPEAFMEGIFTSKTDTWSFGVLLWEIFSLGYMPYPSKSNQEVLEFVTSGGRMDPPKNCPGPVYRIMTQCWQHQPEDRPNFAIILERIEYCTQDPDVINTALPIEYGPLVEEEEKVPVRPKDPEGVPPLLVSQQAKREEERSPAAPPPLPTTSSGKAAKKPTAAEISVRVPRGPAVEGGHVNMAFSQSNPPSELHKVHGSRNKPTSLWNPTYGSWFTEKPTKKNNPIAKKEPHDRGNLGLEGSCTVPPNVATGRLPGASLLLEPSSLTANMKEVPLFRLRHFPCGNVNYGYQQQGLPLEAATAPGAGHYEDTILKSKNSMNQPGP

Turning to `Cc1cc(Nc2ncc(Cl)c(Nc3ccccc3S(=O)(=O)C(C)C)n2)c(OC(C)C)cc1C1CCN(C(=O)COCCOCCOCC(=O)N[C@H](C(=O)N2C[C@H](O)C[C@H]2C(=O)NCc2ccc(-c3scnc3C)cc2)C(C)(C)C)CC1` [CZ47-17, (2S,4R)-1-((S)-2-(tert-Butyl)-14-(4-(4-((5-chloro-4-((2-(isopropylsulfonyl)phenyl)amino)pyrimidin-2-yl)amino)-5-isopropoxy-2-methylphenyl)piperidin-1-yl)-4,14-dioxo-6,9,12-trioxa-3-azatetradecanoyl)-4-hydroxy-N-(4-(4-methylthiazol-5-yl)benzyl)pyrrolidine-2-carboxamide], the Dmax at 0.5 µM was < 20%. On to `Cc1cc(Nc2ncc(Cl)c(Nc3ccccc3S(=O)(=O)C(C)C)n2)c(OC(C)C)cc1C1CCN(C(=O)CCOCCOCCOCCOCCOCCNc2cccc3c2C(=O)N(C2CCC(=O)NC2=O)C3=O)CC1` (centres unmarked) [CZ47-12, 4-((18-(4-(4-((5-Chloro-4-((2-(isopropylsulfonyl)phenyl)amino)pyrimidin-2-yl)amino)-5-isopropoxy-2-methylphenyl)piperidin-1-yl)-18-oxo-3,6,9,12,15-pentaoxaoctadecyl)amino)-2-(2,6-dioxopiperidin-3-yl)isoindoline-1,3-dione], for which the Dmax at 0.5 µM was 20 to 80%.

Regarding `Cc1cc(Nc2ncc(Cl)c(Nc3ccccc3S(=O)(=O)C(C)C)n2)c(OC(C)C)cc1C1CCN(C(=O)CCNc2cccc3c2C(=O)N(C2CCC(=O)NC2=O)C3=O)CC1` (centres unmarked) [CZ47-02, 4-((3-(4-(4-((5-Chloro-4-((2-(isopropylsulfonyl)phenyl)amino)pyrimidin-2-yl)amino)-5-isopropoxy-2-methylphenyl)piperidin-1-yl)-3-oxopropyl)amino)-2-(2,6-dioxopiperidin-3-yl)isoindoline-1,3-dione], the Dmax at 0.5 µM lay within 20 to 80%. As for `Cc1cc(Nc2ncc(Cl)c(Nc3ccccc3S(=O)(=O)C(C)C)n2)c(OC(C)C)cc1C1CCN(C(=O)CCOCCNc2cccc3c2C(=O)N(C2CCC(=O)NC2=O)C3=O)CC1` (centres unmarked) [CZ47-08, 4-((2-(3-(4-(4-((5-Chloro-4-((2-(isopropylsulfonyl)phenyl)amino)pyrimidin-2-yl)amino)-5-isopropoxy-2-methylphenyl)piperidin-1-yl)-3-oxopropoxy)ethyl)amino)-2-(2,6-dioxopiperidin-3-yl)isoindoline-1,3-dione], the figure is > 80%; as for `Cc1cc(Nc2ncc(Cl)c(Nc3ccccc3S(=O)(=O)C(C)C)n2)c(OC(C)C)cc1C1CCN(C(=O)CCCCCCCCC(=O)N[C@H](C(=O)N2C[C@H](O)C[C@H]2C(=O)NCc2ccc(-c3scnc3C)cc2)C(C)(C)C)CC1` [CZ47-28, (2S,4R)-1-((S)-2-(10-(4-(4-((5-Chloro-4-((2-(isopropylsulfonyl)phenyl)amino)pyrimidin-2-yl)amino)-5-isopropoxy-2-methylphenyl)piperidin-1-yl)-10-oxodecanamido)-3,3-dimethylbutanoyl)-4-hydroxy-N-(4-(4-methylthiazol-5-yl)benzyl)pyrrolidine-2-carboxamide], < 20%.
